The test system of data set [1] is Rattus norvegicus. Briefly: Reversal of IMC-14-induced neuromuscular block in Sprague-Dawley rat model assessed as recovery time at 10 mg/kg, iv measured at 30 mins. The class given is functional. To be noted: 0.5 h.
Data set [2] relates to Rattus norvegicus. Briefly: Reversal of IMC-14-induced neuromuscular block in Sprague-Dawley rat model assessed as recovery time at 10 mg/kg, iv measured at 5 hrs. The class given is functional.
The test system of data set [3] is Rattus norvegicus. Briefly: Reversal of IMC-14-induced neuromuscular block in Sprague-Dawley rat model assessed as recovery time at 20 mg/kg, iv measured at 19 sec. The class given is functional. As to conditions: 19 s.
Data set [4] concerns Rattus norvegicus. Nature of the data set: Reversal of IMC-14-induced neuromuscular block in Sprague-Dawley rat model assessed as recovery time at 10 mg/kg, iv measured at 30 sec. Type of data set: functional. As to conditions: 0.5 min.
Data set [5] is described as follows: Toxicity in Sprague-Dawley rat at 0.2 mg/kg, iv measured for 5 hrs. Type of data set: organism-based. As to conditions: in vivo.
Data set [6] is described as follows: Hemolytic activity in human RBC assessed as hemolysis rate at 2048 microg/ml relative to control. Type of data set: toxicity, cell-based, Erythrocyte. To be noted: red blood cells, at 2048 µg/mL, read-out: Activity.
Data set [7] concerns Rattus norvegicus. Nature of the data set: Neuromuscular block activity in propofol-induced anesthetized Sprague-Dawley rat model assessed as inhibition of twitch by measuring twitch intensity of quadriceps muscle at 10 mg/kg, iv administered as bolus dose by TOF watch monitor analysis relative to control. Type of data set: functional.
Data set [8] deals with Rattus norvegicus. Briefly: Neuromuscular block activity in propofol-induced anesthetized Sprague-Dawley rat model assessed as inhibition of twitch by measuring twitch intensity of quadriceps muscle at 1.5 mg/kg, iv administered as bolus dose by TOF watch monitor analysis relative to control. Type of data set: functional.
Data set [9] relates to Rattus norvegicus. Briefly: Neuromuscular block activity in propofol-induced anesthetized Sprague-Dawley rat model assessed as onset time required for twitch reduction at 10 mg/kg, iv. The class given is functional.
Data set [10] has as its system Rattus norvegicus. Briefly: Neuromuscular block activity in propofol-induced anesthetized Sprague-Dawley rat model assessed as onset time required for twitch reduction at 0.032 mg/kg, iv. Type of data set: functional.
In data set [11] the test system is Rattus norvegicus. Nature of the data set: Neuromuscular block activity in propofol-induced anesthetized Sprague-Dawley rat model assessed as inhibition of twitch by measuring twitch intensity of quadriceps muscle at 0.04 mg/kg, iv administered as bolus dose by TOF watch monitor analysis relative to control. Type of data set: functional.
A short description of data set [12]: Toxicity in Sprague-Dawley rat assessed as heart damage at 3 mg/kg, iv measured after 5 hrs by H and E staining based analysis. Type of data set: organism-based. To be noted: in vivo.
The subject of data set [13] is Rattus norvegicus. Briefly: Neuromuscular block activity in propofol-induced anesthetized Sprague-Dawley rat model assessed as recovery time at 0.032 mg/kg, iv. Type of data set: functional.
In data set [14] the test system is Rattus norvegicus. Nature of the data set: Neuromuscular block activity in propofol-induced anesthetized Sprague-Dawley rat model assessed as time duration of 0 to 25 percent recovery indices at 1.5 mg/kg, iv. The class given is functional.
The subject of data set [15] is Rattus norvegicus. Nature of the data set: Neuromuscular block activity in propofol-induced anesthetized Sprague-Dawley rat model assessed as time duration of 0 to 25 percent recovery indices at 3 mg/kg, iv. The class given is functional.
Data set [16] concerns Rattus norvegicus. Nature of the data set: Neuromuscular block activity in propofol-induced anesthetized iv dosed Sprague-Dawley rat model assessed as effective dose. Type of data set: functional.
In data set [17] the test system is Rattus norvegicus. Briefly: Neuromuscular block activity in propofol-induced anesthetized Sprague-Dawley rat model assessed as onset time required for twitch reduction at 1.5 mg/kg, iv. Type of data set: functional.
Data set [18] has as its system Rattus norvegicus. Briefly: Neuromuscular block activity in propofol-induced anesthetized Sprague-Dawley rat model assessed as onset time required for twitch reduction at 0.2 mg/kg, iv. Type of data set: functional.
Data set [19] in a line: Toxicity in Sprague-Dawley rat assessed as lung damage at 3 mg/kg, iv measured after 5 hrs by H and E staining based analysis. The class given is organism-based. To be noted: in vivo.
Data set [20] deals with Rattus norvegicus. Nature of the data set: Neuromuscular block activity in propofol-induced anesthetized Sprague-Dawley rat model assessed as onset time required for twitch reduction at 0.04 mg/kg, iv. Type of data set: functional.
Data set [21] in a line: Toxicity in Sprague-Dawley rat assessed as liver damage at 3 mg/kg, iv measured after 5 hrs by H and E staining based analysis. Type of data set: organism-based. As to conditions: in vivo.
Data set [22] in a line: Hemolytic activity in rat RBC assessed as hemolysis rate at 2048 microg/ml relative to control. To be noted: red blood cells, at 2048 µg/mL, read-out: Activity. Type of data set: toxicity, cell-based, Erythrocyte.
For data set [23], the system named is Rattus norvegicus. Briefly: Neuromuscular block activity in propofol-induced anesthetized Sprague-Dawley rat model assessed as time duration of 0 to 25 percent recovery indices at 0.04 mg/kg, iv. Type of data set: functional.
Data set [24] concerns Rattus norvegicus. Briefly: Neuromuscular block activity in propofol-induced anesthetized Sprague-Dawley rat model assessed as time duration of 0 to 25 percent recovery indices at 10 mg/kg, iv. The class given is functional.
Data set [25] relates to Rattus norvegicus. Briefly: Neuromuscular block activity in propofol-induced anesthetized Sprague-Dawley rat model assessed as inhibition of twitch by measuring twitch intensity of quadriceps muscle at 0.2 mg/kg, iv administered as bolus dose by TOF watch monitor analysis relative to control. The class given is functional.
Data set [26] concerns Rattus norvegicus. Briefly: Neuromuscular block activity in propofol-induced anesthetized Sprague-Dawley rat model assessed as inhibition of twitch by measuring twitch intensity of quadriceps muscle at 3 mg/kg, iv administered as bolus dose by TOF watch monitor analysis relative to control. The class given is functional.
Data set [27] is described as follows: Solubility of compound in water. Type of data set: physicochemical.
Data set [28] deals with Rattus norvegicus. Nature of the data set: Neuromuscular block activity in propofol-induced anesthetized Sprague-Dawley rat model assessed as inhibition of twitch by measuring twitch intensity of quadriceps muscle at 0.032 mg/kg, iv administered as bolus dose by TOF watch monitor analysis relative to control. The class given is functional.
A short description of data set [29]: Toxicity in Sprague-Dawley rat assessed as spleen damage at 3 mg/kg, iv measured after 5 hrs by H and E staining based analysis. The class given is organism-based. As to conditions: in vivo.
Data set [30] has as its system Rattus norvegicus. Briefly: Neuromuscular block activity in propofol-induced anesthetized Sprague-Dawley rat model assessed as time duration of 0 to 25 percent recovery indices at 0.2 mg/kg, iv. Type of data set: functional.
The test system of data set [31] is Rattus norvegicus. Nature of the data set: Neuromuscular block activity in propofol-induced anesthetized Sprague-Dawley rat model assessed as time duration of 0 to 25 percent recovery indices at 0.032 mg/kg, iv. The class given is functional.
Data set [32] in a line: Toxicity in Sprague-Dawley rat assessed as kidney damage at 3 mg/kg, iv measured after 5 hrs by H and E staining based analysis. As to conditions: in vivo. Type of data set: organism-based.
In data set [33] the test system is Rattus norvegicus. Briefly: Neuromuscular block activity in propofol-induced anesthetized Sprague-Dawley rat model assessed as onset time required for twitch reduction at 3 mg/kg, iv. Type of data set: functional.
Data set [34] can be described thus: Mutagenicity in Salmonella typhimurium TA100 by AMES test. As to conditions: salmonella enterica subsp. enterica serovar typhimurium. The class given is toxicity.
The nature of data set [35]: Mutagenicity in Salmonella typhimurium TA97a by AMES test. Type of data set: toxicity. As to conditions: salmonella enterica subsp. enterica serovar typhimurium.
Data set [36] can be described thus: Mutagenicity in Salmonella typhimurium TA98 by AMES test. Type of data set: toxicity. To be noted: salmonella enterica subsp. enterica serovar typhimurium.
Data set [37] addresses Voltage-gated inwardly rectifying potassium channel KCNH2 (Homo sapiens, UniProt Q12809). Briefly: Inhibition of hERG by Qpatch assay. Type of data set: toxicity. (In general: hERG is a cardiac potassium channel; its block is linked to QT prolongation.)
The nature of data set [38]: Toxicity in iv dosed ICR mouse assessed as maximum tolerated dose. As to conditions: in vivo. The class given is organism-based.
The next data set has as its system H9c2. Briefly: Cytotoxicity against rat H9c2 cells assessed as cell viability at 150 microg/ml measured for 24 hrs by SRB assay. The class given is toxicity, cell-based. To be noted: h9c2, 24 h, dose 150 µg/ml. Background: The SRB assay estimates cell density from bound dye.

Chain of Voltage-gated inwardly rectifying potassium channel KCNH2 (Q12809 whole entry): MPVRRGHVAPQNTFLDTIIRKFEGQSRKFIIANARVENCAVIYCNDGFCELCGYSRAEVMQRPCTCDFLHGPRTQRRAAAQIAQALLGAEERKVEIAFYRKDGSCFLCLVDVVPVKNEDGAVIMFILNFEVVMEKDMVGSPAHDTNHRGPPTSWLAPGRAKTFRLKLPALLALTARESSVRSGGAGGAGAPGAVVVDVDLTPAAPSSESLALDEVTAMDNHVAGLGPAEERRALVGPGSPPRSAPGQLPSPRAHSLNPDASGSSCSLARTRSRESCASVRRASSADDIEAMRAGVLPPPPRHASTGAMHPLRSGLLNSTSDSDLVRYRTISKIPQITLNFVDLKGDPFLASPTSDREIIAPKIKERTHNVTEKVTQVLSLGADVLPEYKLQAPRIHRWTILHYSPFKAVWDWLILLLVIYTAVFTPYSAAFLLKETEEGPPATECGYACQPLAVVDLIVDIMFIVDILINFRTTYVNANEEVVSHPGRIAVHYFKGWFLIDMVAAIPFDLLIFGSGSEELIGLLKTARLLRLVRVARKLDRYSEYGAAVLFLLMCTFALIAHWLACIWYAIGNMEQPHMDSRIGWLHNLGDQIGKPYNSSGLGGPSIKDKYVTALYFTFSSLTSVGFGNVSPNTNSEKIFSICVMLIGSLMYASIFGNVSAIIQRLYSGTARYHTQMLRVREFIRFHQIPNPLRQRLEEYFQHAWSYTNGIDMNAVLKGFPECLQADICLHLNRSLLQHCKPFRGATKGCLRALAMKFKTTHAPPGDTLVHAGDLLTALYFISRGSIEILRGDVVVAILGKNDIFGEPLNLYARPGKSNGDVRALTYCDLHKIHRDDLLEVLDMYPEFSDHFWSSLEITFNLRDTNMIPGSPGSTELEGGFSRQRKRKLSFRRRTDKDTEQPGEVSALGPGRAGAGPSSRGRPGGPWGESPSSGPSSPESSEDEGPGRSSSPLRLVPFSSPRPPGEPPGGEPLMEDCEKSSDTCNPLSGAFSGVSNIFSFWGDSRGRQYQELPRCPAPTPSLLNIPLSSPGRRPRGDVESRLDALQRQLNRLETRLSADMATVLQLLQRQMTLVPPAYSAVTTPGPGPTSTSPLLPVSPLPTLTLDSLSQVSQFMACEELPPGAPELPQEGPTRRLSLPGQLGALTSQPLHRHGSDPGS

In the case of `C[C@]12N3Cc4c(c(OCCCC(=O)[O-])c5ccccc5c4OCCCC(=O)[O-])CN1C(=O)N1CN4C(=O)N5CN6C(=O)N7CN8C(=O)N9Cc%10c(c(OCCCC(=O)[O-])c%11ccccc%11c%10OCCCC(=O)[O-])CN%10C(=O)N(CN%11C(=O)N(CN%12C(=O)N(CN(C3=O)[C@]12C)[C@@H]4[C@H]%125)[C@@H]6[C@H]%117)[C@]8(C)[C@@]9%10C.[Na+].[Na+].[Na+].[Na+]`, the Time with Rattus norvegicus [1] amounted to 19 s; in the data set with Rattus norvegicus [2] it was 12 s; in the data set on Rattus norvegicus [3], 30 s; in the data set with Rattus norvegicus [4], 54 s. The Activity result in [5] is “Non-toxic”.
A word on the inhibition in vivo: it is the relative decrease from the control value, in per cent. In general, ED50 refers to the dose that gives a 50% effect, or the effect in half of the subjects. In general, solubility refers to the dissolved amount per volume that the medium holds. Low readings indicate a poorly soluble substance, high ones a readily soluble substance. What is called IC50 is the concentration that gives 50% inhibition. A high value points to weaker potency. As usually defined, the MTD is the largest dose that counted as tolerated. Turning to `Cc1n2cc[n+]1Cc1ccc(cc1)Oc1ccc(cc1)C[n+]1ccn(c1C)CCCn1cc[n+](c1C)Cc1ccc(cc1)Oc1ccc(cc1)C[n+]1ccn(c1C)CCC2.[Cl-].[Cl-].[Cl-].[Cl-]`, the hemolysis at 2048 microg/ml in [6] and in data set [22] was below 5% throughout. Further, the inhibition in vivo at 10 mg/kg in the data set with Rattus norvegicus [7] was determined as 100%. Further, the inhibition in vivo at 1.5 mg/kg in the data set on Rattus norvegicus [8] came to 100%. The Time is 9 s with Rattus norvegicus [9]; 293 s in the data set with Rattus norvegicus [10]; 7.6 min in the data set on Rattus norvegicus [13]; above 300 min in the data set on Rattus norvegicus [14]; above 300 min with Rattus norvegicus [15]; 13 s in the data set on Rattus norvegicus [17]. Also, the Time is 20.5 s in the data set on Rattus norvegicus [18]; 90 s in the data set on Rattus norvegicus [20]; 102 min with Rattus norvegicus [23]; above 300 min in the data set on Rattus norvegicus [24]; 217 min in the data set on Rattus norvegicus [30]; 35 min with Rattus norvegicus [31]. Also, in the data set with Rattus norvegicus [33], the Time came to 9 s. Further, the inhibition in vivo at 0.04 mg/kg with Rattus norvegicus [11] is 90%. For the same molecule, the Activity result in data set [12], in data set [19], in data set [21], in data set [29], in data set [32] and in [34] was “Non-toxic” each time. Besides, the Activity entry (in data set [35]; in data set [36]; in the data set with H9c2) was “Non-toxic” each time. In addition, in the data set on Rattus norvegicus [16], the median effective dose (ED50) was found to be 0.016 mg/kg. The inhibition in vivo at 0.2 mg/kg with Rattus norvegicus [25] was found to be 100%. In addition, the inhibition in vivo at 3 mg/kg with Rattus norvegicus [26] was 100%. The molecule also had a solubility in data set [27] of at least 50 mM. Moreover, the inhibition in vivo at 0.032 mg/kg with Rattus norvegicus [28] amounted to 90%. Also, the 50% inhibitory concentration (IC50) in data set [37] is above 40 µM. Moreover, the MTD in data set [38] came to 550 mg/kg.
